Where two headings read alike, the source gives them in different places.
Test system: Human PBMC
Assay: Cytokine production upon human PBMC stimulation (ORN complexed to DOTAP, 16 h, ELISA)
Type: cell-based
Parameters: key to IFN-alpha / TNF-alpha: +: cytokine production; −: no cytokine production
Settings: for EC50 / IFN-alpha max activity / TNF-alpha max activity: ORN complexed to DOTAP, 16 h; for EC50: full titration 2 μM to 0.9 nM; for IFN-alpha max activity / TNF-alpha max activity: mean max activity at 0.6 μM, 3-6 blood donors; for IFN-alpha / TNF-alpha: human PBMC stimulated for 16 h, supernatant ELISA
Description: Human peripheral blood mononuclear cells (PBMCs) were isolated from healthy donors, plated, and stimulated in vitro with various test and control immunostimulatory agents for 16 hours. After 16 hours, the supernatants were collected and then analyzed by ELISA assay. N-U-R1-R2,-Containing Oligoribonucleotides were tested complexed to DOTAP and with full titration curves (7 concentrations), starting from 2 μM ORN complexed to 25 μg/ml DOTAP and with 1/3 dilution steps. Also included were certain negative controls, including medium alone and DOTAP (25 μg/ml culture well; “Liposomes”) alone. The control immunostimulatory agents included the imidazoquinoline R-848 (2 μM with 1/3 dilution steps and 7 concentrations) the reported ligand for TLR7, ORN having TLR8 motifs such as AU and AUU sequences (SEQ ID NO:13-SEQ ID NO:15) ORN having TLR7/8 motifs such as CU, GU and GUU sequences (SEQ ID NO:19-SEQ ID NO:23).
Human PBMC were stimulated with ORN complexed to DOTAP. After 16 hours supernatants were harvested and TNF-alpha and IFN-alpha levels were measured. Mean/Max activities at 0.6 μM of 3-6 blood donors and two individual experiments were determined. […] TLR8 and TLR7/8 ORN are divided by a red line.
Human PBMC were stimulated with ORN complexed to DOTAP. After 16 hours supernatants were harvested and IFN-alpha levels were measured. Mean/Max activities at 0.6 μM and EC50 of full titration curves (range: 2 μM to 0.9 nM) of 3-6 blood donors and two individual experiments were determined. […] Low EC50/high Max activity represents TLR7/8 ORN (FIG. 5a) whereas high EC50 and low Max activity represents TLR8 ORN (FIG. 5b).
The ORN sequences listed in Table 1 were tested for IFN-alpha and TNF-alpha production upon human PBMC stimulation. Human PBMC were stimulated for 16 h with the indicated ORN, and supernatants were harvested and cytokine production measured by ELISA. Table 2 summarizes the min/max activity and EC50 of ORN for IFN-alpha and TNF-alpha production.

[1] = human PBMC, read-out: IFN-alpha EC50
[2] = human PBMC, read-out: TNF-alpha EC50

Substance	EC50 [1] [nM]	EC50 [2] [nM]	IFN-alpha max activity (human PBMC) [pg/mL]	TNF-alpha max activity (human PBMC) [pg/mL]	IFN-alpha	TNF-alpha	IFN-alpha production upon PBMC stimulation (in words) (human PBMC)
C*C*G*A*G*C*C*G*A*U*U*C*T*A*C*C (CCGAGCCGAUUCNACC; Oligoribonucleotide, chemistry of T and the '*' linkage is not given here, further chemistry not given here) [SEQ ID NO: 75]	1300	129	929.9	27576			
C*C*G*A*G*C*C*G*A*U*U*U*A*A*C*C (CCGAGCCGAUUUAACC; listed as RNA, chemistry not fully specified) [SEQ ID NO: 73]	55	163	1395	31619			
C*C*G*A*G*C*C*G*A*A*G*C*U*A*C*C (CCGAGCCGAAGCUACC; listed as RNA, chemistry not fully specified) [SEQ ID NO: 87]	> 2000	346	100.5	12979			
C*C*G*A*G*C*C*G*A*G*C*U*C*A*C*C (CCGAGCCGAGCUCACC; listed as RNA, chemistry not fully specified) [SEQ ID NO: 81]	667	802	842.9	14519			
C*C*G*A*G*C*C*G*A*A*G*G*U*C*C*C (CCGAGCCGAAGGUCCC; listed as RNA, chemistry not fully specified) [SEQ ID NO: 86]	767	850	856.5	4178			
G*U*G*U*G*U*G*U*G*U*G*U*G*U*G*U*G*U*G*U (GUGUGUGUGUGUGUGUGUGU; listed as RNA, chemistry not fully specified) [SEQ ID NO: 20]					+	+	
C*C*G*A*G*C*C*G*A*U*A*U*U*A*C*C (CCGAGCCGAUAUUACC; listed as RNA, chemistry not fully specified) [SEQ ID NO: 65]	1130	77	335.2	39377			
I*U*A*I*U*A*I*U*A*I*U*A*I*U*A*I*U*A*I*U (NUANUANUANUANUANUANU; inosine, phosphorothioate linkages, chemistry not fully specified) [SEQ ID NO: 27]					+	+	
C*C*G*A*G*C*C*G*A*T*U*U*C*A*C*C [SEQ ID NO: 79] (CCGAGCCGANUUCACC; Oligoribonucleotide, chemistry of T and the '*' linkage is not given here, further chemistry not given here)	35	334	1152	17728			
C*C*G*A*G*C*C*G*A*C*U*U*U*A*C*C (CCGAGCCGACUUUACC; listed as RNA, chemistry not fully specified) [SEQ ID NO: 57]	77	213	1499	33624			
C*C*G*A*G*C*C*G*A*U*U*U*C*A*C*C (CCGAGCCGAUUUCACC; listed as RNA, chemistry not fully specified) [SEQ ID NO: 71]	51	160	1626	45164			
C*C*G*A*G*C*C*G*A*G*U*U*U*A*C*C (CCGAGCCGAGUUUACC; listed as RNA, chemistry not fully specified) [SEQ ID NO: 58]	63	203	1760	36627			
C*C*G*A*G*C*C*G*A*U*C*U*C*A*C*C (CCGAGCCGAUCUCACC; listed as RNA, chemistry not fully specified) [SEQ ID NO: 69]	619	313	1031	26915			
A*A*U*A*A*U*A*A*U*A*A*U*A*A*U*A*A*U*A*A (AAUAAUAAUAAUAAUAAUAA; listed as RNA, chemistry not fully specified) [SEQ ID NO: 16]					−	+	
C*C*G*A*G*C*C*G*C*C*G*C*C*C*C*C (CCGAGCCGCCGCCCCC; listed as RNA, chemistry not fully specified) [SEQ ID NO: 35]	> 2000		70.6	2854			
A*A*A*A*U*A*A*A*A*U*A*A*A*A*U*A*A*A*A*U (AAAAUAAAAUAAAAUAAAAU; listed as RNA, chemistry not fully specified) [SEQ ID NO: 18]					−	+	
C*C*G*A*G*C*C*G*A*U*T*U*T*A*C*C (CCGAGCCGAUTUTACC; Oligoribonucleotide, chemistry of T and the '*' linkage is not given here, further chemistry not given here) [SEQ ID NO: 70]	132	150	1702	44904			
C*C*G*A*G*C*C*G*C*U*A*U*A*C*C*C (CCGAGCCGCUAUACCC; listed as RNA, chemistry not fully specified) [SEQ ID NO: 37]	≥ 1500	750	240.5	22800			
C*C*G*A*G*C*C*A*U*A*U*A*U*C*C*C (CCGAGCCAUAUAUCCC; listed as RNA, chemistry not fully specified) [SEQ ID NO: 38]	≥ 1500	890	245	14064			
C*C*G*A*G*C*C*G*A*A*G*G*C*A*C*C (CCGAGCCGAAGGCACC; listed as RNA, chemistry not fully specified) [SEQ ID NO: 56]	> 2000		59.84	4430			
U*U*U*U*G*U*U*U*U*G*U*U*U*U*G*U*U*U*U*G (UUUUGUUUUGUUUUGUUUUG; listed as RNA, chemistry not fully specified) [SEQ ID NO: 23]					+	+	
G*U*A*G*U*A*G (GUAGUAG; phosphorothioate linkages, chemistry not fully specified) [SEQ ID NO: 34]					+	+	
C*C*G*A*G*C*C*G*A*T*U*U*U*A*C*C (CCGAGCCGANUUUACC; Oligoribonucleotide, chemistry of T and the '*' linkage is not given here, further chemistry not given here) [SEQ ID NO: 59]	74	224	1714	26762			
C*U*A*G*G*C*A*C (CUAGGCAC; phosphorothioate linkages, chemistry not fully specified) [SEQ ID NO: 3]					−	+	
G*U*A*G*U*A*G*U*A*G*U*A*G*U*A*G*U*A*G*U (GUAGUAGUAGUAGUAGUAGU; listed as RNA, chemistry not fully specified) [SEQ ID NO: 25]					+	+	
C*C*G*A*G*C*C*G*A*A*U*U*U*A*C*C (CCGAGCCGAAUUUACC; listed as RNA, chemistry not fully specified) [SEQ ID NO: 60]	109	187	1463	36562			
C*C*G*A*G*C*C*G*A*T*U*G*U*A*C*C (CCGAGCCGANUGUACC; Oligoribonucleotide, chemistry of T and the '*' linkage is not given here, further chemistry not given here) [SEQ ID NO: 62]	276	343	1945	37334			
C*C*G*A*G*C*C*A*U*A*U*A*U*A*U*C (CCGAGCCAUAUAUAUC; listed as RNA, chemistry not fully specified) [SEQ ID NO: 39]	≥ 1500	324	356.7	19253			
U*U*U*A*U*U*U*A*U*U*U*A*U*U*U*A*U*U*U*A (UUUAUUUAUUUAUUUAUUUA; chemistry not fully specified) [SEQ ID NO: 14]					+	+	induced IFN-alpha production

— patent publication US8354522B2, “Immunostimulatory oligoribonucleotides” (Coley Pharmaceutical GmbH, priority 2005, dated 2013)
